# Reference: patent publication US20240417374A1, “SMALL MOLECULE ANTAGONIST TO PACAP RECEPTOR AND USES THEREOF” (The University of Vermont and State Agricultural College, priority 2021, published 2024)
# “And” between values parts separate entries of the source, which are not always exact repeats. Identical values can stand only once.
# How the values were obtained:
# PAC1 receptor [1] = target: T1, PAC1 receptor (Homo sapiens, UniProt P41586); assay: Inhibition of 20 nM PACAP-stimulated ERK activation in stable PAC1 receptor HEK cells (Western blot); assay type: cell-based; design: expressed in transfected cells; settings: for efficacy and potency in blocking PACAP/PAC1 receptor-stimulated ERK activation, in words: stable human HEK PAC1 receptor cell line, FIGS. 1 and 2
# T1 sequence (P41586 21-468): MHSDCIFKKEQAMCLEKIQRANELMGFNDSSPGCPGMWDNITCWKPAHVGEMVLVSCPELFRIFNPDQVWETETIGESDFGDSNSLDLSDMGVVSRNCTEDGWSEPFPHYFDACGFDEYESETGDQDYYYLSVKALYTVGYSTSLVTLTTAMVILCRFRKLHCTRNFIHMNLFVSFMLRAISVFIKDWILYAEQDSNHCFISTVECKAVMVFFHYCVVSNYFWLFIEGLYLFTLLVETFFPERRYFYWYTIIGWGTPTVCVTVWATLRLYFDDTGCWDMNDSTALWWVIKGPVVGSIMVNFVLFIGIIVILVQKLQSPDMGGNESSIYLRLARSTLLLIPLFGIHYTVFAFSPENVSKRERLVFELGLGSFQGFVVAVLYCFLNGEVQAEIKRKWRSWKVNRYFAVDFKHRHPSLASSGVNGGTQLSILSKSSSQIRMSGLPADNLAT
# PAC1 receptor [2] = target: T1, PAC1 receptor; design: expressed in transfected cells; settings: earlier work, WO/2020/168068; cited from earlier work
# PAC1 receptor [3] = target: T1, PAC1 receptor; design: expressed in transfected cells; settings: earlier work, WO/2020/168068; cited from earlier work; remark: listed apart in the source
# PAC1 receptor [4] = target: T1, PAC1 receptor; design: expressed in transfected cells; settings: earlier work, WO/2020/168068; cited from earlier work; remark: listed apart in the source
# [5] = test system: PACAP-induced anxiety-related behaviors; settings: earlier work, WO/2020/168068; cited from earlier work
# PAC1 receptor [6] = target: T1, PAC1 receptor; assay: PAC1 receptor-stimulated adenylyl cyclase cAMP activation; assay type: cell-based
# rats = assay: Elevated plus maze after bilateral BNST infusion, PACAP-induced anxiety-like responses; assay type: in vivo, rat; settings: FIG. 3B
# Method: FIG. 3 depicts that PAC1 receptor antagonist RJB-145 blocks PACAP-induced signaling and anxiety-like behavioral responses. […] 20 μM RJB-145 blocked PACAP-stimulated ERK activation nearly 75%. Data represent mean +/− SEM; n=3−4 wells/group. […] Anxiety ridden rats avoid the open arms of the maze and prefer traveling into the closed arms. […] Data represent mean +/− SEM; n=8-10 animals/group; **, statistically different from vehicle, RJB145 and PACAP+RJB145 at p<0.01.
# PAC1 receptor [7] = target: T1, PAC1 receptor; assay: PACAP-induced calcium flux in HEK PAC1R stable cell lines; assay type: cell-based; design: expressed in transfected cells; settings: 20 nM PACAP, FIG. 3A, read-out: calculated IC50, attenuation of PACAP-induced calcium flux
# [8] = 20 nM PACAP, PAC1 receptor HEK cells, FIG. 2, read-out: apparent IC50, inhibition of PACAP-stimulated ERK activation
SMILES,IC50 (PAC1 receptor [1]; [8]),PAC1 receptor internalization (PAC1 receptor [2]),PAC1 receptor endosomal ERK signaling (PAC1 receptor [3]),combination with GCGR antagonist MK-0893 to inhibit PACAP/PAC1 receptor mediated ERK activation (PAC1 receptor [3]),PACAP-stimulated PAC1 receptor plasma membrane calcium signaling (PAC1 receptor [4]),blocking PACAP-induced anxiety-related behaviors in vivo [5],"efficacy and potency in blocking PACAP/PAC1 receptor-stimulated ERK activation, in words (PAC1 receptor [1])","IC50 (PAC1 receptor [1]; 20 nM PACAP, HEK PAC1R stable cell lines, FIG. 3A, read-out: calculated IC50, attenuation of PACAP-induced ERK activation)","block of PACAP-stimulated ERK activation (PAC1 receptor [1]; 20 μM compound, FIG. 3A)","blocking PACAP/PAC1 receptor stimulated ERK activation (Western blot) (PAC1 receptor [1]; 25 μM pretreatment, 20 nM PACAP, FIG. 1)",effect on PAC1 receptor-stimulated adenylyl cyclase cAMP activation (PAC1 receptor [6]),"behavioral effect on elevated plus maze, compound infused alone (rats; 20 μM/0.5 μL bilaterally into BNST of rats, 5 min per trial)",antagonism of PACAP-induced anxiety-like responses (open arm time) on elevated plus maze (rats; PACAP+RJB-145 infused bilaterally into BNST of rats),IC50 (PAC1 receptor [7])
O=C(N/N=C/c1cccc2c1ccn2Cc1cc(F)cc(F)c1)c1ccc(O)c(Cl)c1 [JF-214],5 to 8 µM,blocked,blocked,acted synergistically,blocked,demonstrated efficacy,–,–,–,–,–,–,–,–
O=C(Nc1ccc(S(=O)(=O)Nc2ccccc2)cc1)c1cc2ccccc2[nH]1 [RJB-88],~25 µM,–,–,–,–,–,appeared less potent,–,–,–,–,–,–,–
O=C(Nc1ccc(S(=O)(=O)Nc2cc(F)cc(F)c2)cc1)c1cc2ccccc2[nH]1 [RJB-145],~10 µM and 10 µM,–,–,–,–,–,shows efficacy and potency,9 µM,~75%,demonstrate efficacy,without significant effects,no behavioral effects compared to vehicle,completely antagonize the PACAP-induced anxiety-like responses to control vehicle levels,8.5 µM
